Laboratory results: ChEMBL document CHEMBL4138123, “Design, synthesis and biological evaluation of novel pyrazolochalcones as potential modulators of PI3K/Akt/mTOR pathway and inducers of apoptosis in breast cancer cells” (Eur J Med Chem, 2017)

Columns and labels:
Format in all cases: functional
NCI-H23 = test: Cytotoxicity against human NCI-H23 cells assessed as cell growth at 0.01 uM after 48 hrs by sulforhodamine B assay relative to control; conditions: NCI-H23, 48 h, read-out: Activity
HCT-15 = test: Cytotoxicity against human HCT15 cells assessed as cell growth at 10 uM after 48 hrs by sulforhodamine B assay relative to control; conditions: HCT-15, 48 h, read-out: Activity
Hs-578T = test: Cytotoxicity against human Hs 578T cells assessed as cell growth at 100 uM after 48 hrs by sulforhodamine B assay relative to control; conditions: read-out: Activity
OVCAR-4 [1] = test: Cytotoxicity against human OVCAR4 cells assessed as cell growth at 10 uM after 48 hrs by sulforhodamine B assay relative to control; conditions: OVCAR-4, 48 h, read-out: Activity
SF-539 [2] = test: Cytotoxicity against human SF539 cells assessed as cell growth at 1 uM after 48 hrs by sulforhodamine B assay relative to control; conditions: SF-539, 48 h, read-out: Activity
NCI-H226 [3] = test: Cytotoxicity against human NCI-H226 cells assessed as cell growth at 100 uM after 48 hrs by sulforhodamine B assay relative to control; conditions: NCI-H226, 48 h, read-out: Activity
M14 [4] = test: Cytotoxicity against human M14 cells assessed as cell growth at 10 uM after 48 hrs by sulforhodamine B assay relative to control; conditions: M14, 48 h, read-out: Activity
M14 [5] = test: Cytotoxicity against human M14 cells assessed as growth inhibition after 48 hrs by sulforhodamine B assay; conditions: M14, 48 h
SF-539 [6] = test: Cytotoxicity against human SF539 cells assessed as cell growth at 0.1 uM after 48 hrs by sulforhodamine B assay relative to control; conditions: SF-539, 48 h, read-out: Activity
A498 = test: Cytotoxicity against human A498 cells assessed as cell growth at 100 uM after 48 hrs by sulforhodamine B assay relative to control; conditions: A498, 48 h, read-out: Activity
NCI/ADR-RES [7] = test: Cytotoxicity against human NCI/ADR-RES cells assessed as cell growth at 0.1 uM after 48 hrs by sulforhodamine B assay relative to control; conditions: read-out: Activity
OVCAR-4 [8] = test: Cytotoxicity against human OVCAR4 cells assessed as cell growth at 0.1 uM after 48 hrs by sulforhodamine B assay relative to control; conditions: OVCAR-4, 48 h, read-out: Activity
SK-MEL-5 [9] = test: Cytotoxicity against human SK-MEL-5 cells assessed as cell growth at 1 uM after 48 hrs by sulforhodamine B assay relative to control; conditions: SK-MEL-5, 48 h, read-out: Activity
OVCAR-8 [10] = test: Cytotoxicity against human OVCAR8 cells assessed as cell growth at 100 uM after 48 hrs by sulforhodamine B assay relative to control; conditions: OVCAR-8, 48 h, read-out: Activity
HOP-62 = test: Cytotoxicity against human HOP62 cells assessed as growth inhibition after 48 hrs by sulforhodamine B assay; conditions: HOP-62, 48 h
SW-620 = test: Cytotoxicity against human SW620 cells assessed as cell growth at 0.01 uM after 48 hrs by sulforhodamine B assay relative to control; conditions: SW-620, 48 h, read-out: Activity
NCI/ADR-RES [11] = test: Cytotoxicity against human NCI/ADR-RES cells assessed as cell growth at 1 uM after 48 hrs by sulforhodamine B assay relative to control; conditions: read-out: Activity
NCI-H460 [12] = test: Cytotoxicity against human NCI-H460 cells assessed as cell growth at 1 uM after 48 hrs by sulforhodamine B assay relative to control; conditions: NCI-H460, 48 h, read-out: Activity
NCI/ADR-RES [13] = test: Cytotoxicity against human NCI/ADR-RES cells assessed as growth inhibition after 48 hrs by sulforhodamine B assay
OVCAR-3 = test: Cytotoxicity against human OVCAR3 cells assessed as cell growth at 1 uM after 48 hrs by sulforhodamine B assay relative to control; conditions: OVCAR-3, 48 h, read-out: Activity
A549 = test: Cytotoxicity against human A549/ATCC cells assessed as cell growth at 100 uM after 48 hrs by sulforhodamine B assay relative to control; conditions: A549, 48 h, read-out: Activity
SK-OV-3 = test: Cytotoxicity against human SKOV3 cells assessed as cell growth at 0.1 uM after 48 hrs by sulforhodamine B assay relative to control; conditions: SK-OV-3, 48 h, read-out: Activity
786-0 = test: Cytotoxicity against human 786-0 cells assessed as growth inhibition after 48 hrs by sulforhodamine B assay; conditions: 786-0, 48 h
MOLT-4 [14] = test: Cytotoxicity against human MOLT4 cells assessed as cell growth at 10 uM after 48 hrs by sulforhodamine B assay relative to control; conditions: MOLT-4, 48 h, read-out: Activity
HL-60(TB) = test: Cytotoxicity against human HL-60(TB) cells assessed as cell growth at 1 uM after 48 hrs by sulforhodamine B assay relative to control; conditions: HL-60, 48 h, read-out: Activity
NCI-H226 [15] = test: Cytotoxicity against human NCI-H226 cells assessed as cell growth at 0.01 uM after 48 hrs by sulforhodamine B assay relative to control; conditions: NCI-H226, 48 h, read-out: Activity
U-251 [16] = test: Cytotoxicity against human U251 cells assessed as cell growth at 0.1 uM after 48 hrs by sulforhodamine B assay relative to control; conditions: U-251, 48 h, read-out: Activity
MOLT-4 [17] = test: Cytotoxicity against human MOLT4 cells assessed as growth inhibition after 48 hrs by sulforhodamine B assay; conditions: MOLT-4, 48 h; for CC50: read-out: LC50 (the source's name)
KM12 = test: Cytotoxicity against human KM12 cells assessed as cell growth at 100 uM after 48 hrs by sulforhodamine B assay relative to control; conditions: KM12, 48 h, read-out: Activity
U-251 [18] = test: Cytotoxicity against human U251 cells assessed as cell growth at 100 uM after 48 hrs by sulforhodamine B assay relative to control; conditions: U-251, 48 h, read-out: Activity
NCI-H460 [19] = test: Cytotoxicity against human NCI-H460 cells assessed as cell growth at 100 uM after 48 hrs by sulforhodamine B assay relative to control; conditions: NCI-H460, 48 h, read-out: Activity
M14 [20] = test: Cytotoxicity against human M14 cells assessed as cell growth at 0.01 uM after 48 hrs by sulforhodamine B assay relative to control; conditions: M14, 48 h, read-out: Activity
NCI-H460 [21] = test: Cytotoxicity against human NCI-H460 cells assessed as growth inhibition after 48 hrs by sulforhodamine B assay; conditions: NCI-H460, 48 h
M14 [22] = test: Cytotoxicity against human M14 cells assessed as cell growth at 0.1 uM after 48 hrs by sulforhodamine B assay relative to control; conditions: M14, 48 h, read-out: Activity
SK-MEL-5 [23] = test: Cytotoxicity against human SK-MEL-5 cells assessed as cell growth at 100 uM after 48 hrs by sulforhodamine B assay relative to control; conditions: SK-MEL-5, 48 h, read-out: Activity
OVCAR-8 [24] = test: Cytotoxicity against human OVCAR8 cells assessed as cell growth at 0.1 uM after 48 hrs by sulforhodamine B assay relative to control; conditions: OVCAR-8, 48 h, read-out: Activity

`COc1ccc(-c2cc(/C=C/C(=O)c3cc(OC)c(OC)c(OC)c3)[nH]n2)cc1OC` showed a growth at 0.01 µM (NCI-H23) of 94%, a growth at 10 µM (HCT-15) of -41% and a growth at 100 µM (Hs-578T) of -16%. The growth at 10 µM (OVCAR-4 [1]) was -11%, the growth at 1 µM (SF-539 [2]) was 17% and the growth at 100 µM (NCI-H226 [3]) was -43%. It also gave a growth at 10 µM (M14 [4]) of -70%, a GI50 (M14 [5]) of 1.8 µM and an LC50 (concentration killing 50% of cells) (M14 [5]) of 7.54 µM. It also gave a TGI (M14 [5]) of 3.69 µM, a growth at 0.1 µM (SF-539 [6]) of 81% and a growth at 100 µM (A498) of -91%. It also gave a growth at 0.1 µM (NCI/ADR-RES [7]) of 97%, a growth at 0.1 µM (OVCAR-4 [8]) of 73% and a growth at 1 µM (SK-MEL-5 [9]) of 87%. For the same compound, the growth at 100 µM (OVCAR-8 [10]) was -84%, the GI50 (HOP-62) was 1.45 µM and the LC50 (HOP-62) was 8.85 µM. It also gave a TGI (HOP-62) of 3.58 µM, a growth at 0.01 µM (SW-620) of 98% and a growth at 1 µM (NCI/ADR-RES [11]) of 81%. For the same compound, the growth at 1 µM (NCI-H460 [12]) was 52%, the GI50 (NCI/ADR-RES [13]) was 2.69 µM and the LC50 (NCI/ADR-RES [13]) was greater than 100 µM. For the same compound, the TGI (NCI/ADR-RES [13]) was 37 µM, the growth at 1 µM (OVCAR-3) was 84% and the growth at 100 µM (A549) was -62%. It also gave a growth at 0.1 µM (SK-OV-3) of 87%, a GI50 (786-0) of 1.5 µM and an LC50 (786-0) of 5.6 µM. For the same compound, the TGI (786-0) was 2.9 µM, the growth at 10 µM (MOLT-4 [14]) was -4% and the growth at 1 µM (HL-60(TB)) was 64%. The growth at 0.01 µM (NCI-H226 [15]) was 93%, the growth at 0.1 µM (U-251 [16]) was 92% and the GI50 (MOLT-4 [17]) was 1.81 µM. For the same compound, the TGI (MOLT-4 [17]) was 8.86 µM, the CC50 (MOLT-4 [17]) was greater than 100 µM and the growth at 100 µM (KM12) was -64%. For the same compound, the growth at 100 µM (U-251 [18]) was -94%, the growth at 100 µM (NCI-H460 [19]) was -60% and the growth at 0.01 µM (M14 [20]) was 96%. For the same compound, the GI50 (NCI-H460 [21]) was 1.04 µM, the LC50 (NCI-H460 [21]) was 29.9 µM and the TGI (NCI-H460 [21]) was 3.6 µM. For the same compound, the growth at 0.1 µM (M14 [22]) was 92%, the growth at 100 µM (SK-MEL-5 [23]) was -98% and the growth at 0.1 µM (OVCAR-8 [24]) was 100%.
Work on `COc1cc2c(cc1OC)C(=O)/C(=C/c1cc(-c3ccc4c(c3)OCO4)n[nH]1)C2` yielded a growth at 0.01 µM (NCI-H23) of 93%, a growth at 10 µM (HCT-15) of -69% and a growth at 100 µM (Hs-578T) of -15%. For the same compound, the growth at 10 µM (OVCAR-4 [1]) was -96%, the growth at 1 µM (SF-539 [2]) was 67% and the growth at 100 µM (NCI-H226 [3]) was -46%. The growth at 10 µM (M14 [4]) was -87%, the GI50 (M14 [5]) was 1.82 µM and the LC50 (concentration killing 50% of cells) (M14 [5]) was 6.34 µM. For the same compound, the TGI (M14 [5]) was 3.4 µM, the growth at 0.1 µM (SF-539 [6]) was 92% and the growth at 100 µM (A498) was -97%. For the same compound, the growth at 0.1 µM (NCI/ADR-RES [7]) was 100%, the growth at 0.1 µM (OVCAR-4 [8]) was 98% and the growth at 1 µM (SK-MEL-5 [9]) was 92%. It also gave a growth at 100 µM (OVCAR-8 [10]) of -94%, a GI50 (HOP-62) of 1.53 µM and an LC50 (HOP-62) of 5.72 µM. For the same compound, the TGI (HOP-62) was 2.96 µM, the growth at 0.01 µM (SW-620) was 98% and the growth at 1 µM (NCI/ADR-RES [11]) was 86%. For the same compound, the growth at 1 µM (NCI-H460 [12]) was 82%, the GI50 (NCI/ADR-RES [13]) was 2.25 µM and the LC50 (NCI/ADR-RES [13]) was greater than 100 µM. The TGI (NCI/ADR-RES [13]) was 6.87 µM, the growth at 1 µM (OVCAR-3) was 75% and the growth at 100 µM (A549) was -65%. For the same compound, the growth at 0.1 µM (SK-OV-3) was 105%, the GI50 (786-0) was 1.61 µM and the LC50 (786-0) was 5.54 µM. It also gave a TGI (786-0) of 2.99 µM, a growth at 10 µM (MOLT-4 [14]) of -18% and a growth at 1 µM (HL-60(TB)) of 86%. The growth at 0.01 µM (NCI-H226 [15]) was 97%, the growth at 0.1 µM (U-251 [16]) was 95% and the GI50 (MOLT-4 [17]) was 2.57 µM. For the same compound, the TGI (MOLT-4 [17]) was 6.97 µM, the CC50 (MOLT-4 [17]) was greater than 100 µM and the growth at 100 µM (KM12) was -80%. It also gave a growth at 100 µM (U-251 [18]) of -94%, a growth at 100 µM (NCI-H460 [19]) of -67% and a growth at 0.01 µM (M14 [20]) of 99%. The GI50 (NCI-H460 [21]) was 1.68 µM, the LC50 (NCI-H460 [21]) was 8.57 µM and the TGI (NCI-H460 [21]) was 3.79 µM. For the same compound, the growth at 0.1 µM (M14 [22]) was 96%, the growth at 100 µM (SK-MEL-5 [23]) was -97% and the growth at 0.1 µM (OVCAR-8 [24]) was 98%.
